Test: Heparin oral/intracolonic delivery in rats, heparin activity by APTT
Assay type: in vivo, Sprague-Dawley rats
Procedure: Oral gavage (PO) and/or intracolonic (IC) dosing solutions containing a delivery agent compound and heparin sodium USP in 25% aqueous propylene glycol were prepared. Either the sodium salt of the compound was used or the free acid was converted to the sodium salt with one equivalent of sodium hydroxide. Typically, delivery agent compound and heparin (about 166-182 IU/mg) were mixed by vortex as dry powders. This dry mixture was dissolved in 25% v/v aqueous propylene glycol, vortexed and placed in a sonicator (about 37° C.). The pH was adjusted to about 7 (6.5 to 8.5) with aqueous NaOH (2N). The dosing solution was sonicated to produce a clear solution. The final volume was adjusted to 3.0 mL. The final delivery agent compound dose, heparin dose and volume dose amounts are listed below in Table 2.
The typical dosing and sampling protocols were as follows. Male Sprague-Dawley rats weighing between 275-350 g were fasted for 24 hours and were anesthetized with ketamine hydrochloride (88 mg/kg) intramuscularly immediately prior to dosing. A dosing group of five rats was administered one of the dosing solutions. For oral gavage (PO) dosing, an 11 cm Rusch 8 French catheter was adapted to a 1 mL syringe with a pipette tip. The syringe was filled with dosing solution by drawing the solution through the catheter, which was then wiped dry. The catheter was placed down the esophagus leaving 1 cm of tubing past the rat's incisors. Solution was administered by pressing the syringe plunger. For intracolonic (IC) dosing, a 7.5 cm 8 fr Rusch catheter was adapted to a 1 ml syringe with a pipette tip. The dosing catheter was inserted into the colon through the anus. until the tube was no longer visible. The dosing solution was expressed slowly into the colon.
Citrated blood samples were collected by cardiac puncture following the administration of ketamine (88 mg/kg), typically at time—0.25, 0.5, 1.0 and 1.5 hours. Heparin activity was determined by utilizing the activated partial thromboplastin time (APTT) according to the method of Henry, J. B., Clinical Diagnosis and Management by Laboratory Methods, Philadelphia, Pa., W. B. Saunders (1979). Previous studied indicated baseline values of about 20 sec. Results from the five rats in each group were averaged for each time point. The maximum is reported below in Table 2.

[1] = IC, 1 ml/kg, compound 50 mg/kg, heparin 100 mg/kg
[2] = IC, 1 ml/kg, compound 50 mg/kg, heparin 25 mg/kg
[3] = PO, 3 ml/kg, compound 200 mg/kg, heparin 100 mg/kg

| Compound | Mean Peak APTT (sec) ± SD) [1] [s] | Mean Peak APTT (sec) ± SD) [2] [s] | Mean Peak APTT (sec) ± SD) [3] [s] |
| --- | --- | --- | --- |
| COc1ccc(O)c(C(=O)Nc2ccc(CCC(=O)O)cc2)c1 [Compound 8] | 266.4 ± 165.7 | – | – |
| COc1ccc(O)c(C(=O)NCCCCCCCC(=O)O)c1 [Compound 1] | – | 102.3 ± 130.4 | – |
| O=C([O-])CCc1ccc(NC(=O)c2ccccc2O)c(F)c1.[Na+] [Compound 5, sodium 3-(4-salicyloylamino-3-fluorophenyl)propionate] | – | 89.9 ± 68.6 | 32.6 ± 5 |
| COc1ccc(O)c(C(=O)Nc2ccc(CCCC(=O)O)cc2)c1 [Compound 9] | 192.8 ± 50.9 | – | – |
| O=C(O)CCCCCCCCCNC(=O)c1cc(Cl)cc(Cl)c1O [Compound 4, N-(3,5-dichlorosalicyloyl)-10-aminodecanoic acid] | – | 94 ± 47.5 | – |
| Cc1cc(F)cc(C(=O)Nc2ccc(CCC(=O)O)cc2)c1O [Compound 6] | – | 90.6 ± 50.9 | 33.8 ± 18.7 |
| COc1ccccc1C(=O)NCCCCCCCCCCC(=O)O [Compound 3] | – | 44.2 ± 16.2 | – |
| O=CNc1ccccc1C(=O)Nc1ccc(CCC(=O)O)cc1 [Compound 7] | – | 28.6 ± 6.1 | – |

From US6693208B2, “Compounds and compositions for delivering active agents” (Emisphere Technologies, Inc., priority 1999, dated 2004)
